Where a chain is given by its changes, count along the chain named.

Format in all cases: binding
Test [1] has as its target T1, Xenopus tropicalis Opn5m (Xenopus tropicalis, UniProt A0A8J0QRX8, W163F).
T1 construct: gene opn5; 21 residues truncated from the C-terminus; expressed in HEK293S cells; purified in DDM on Rho1D4-agarose
T1 sequence (A0A8J0QRX8 1-322 W163F): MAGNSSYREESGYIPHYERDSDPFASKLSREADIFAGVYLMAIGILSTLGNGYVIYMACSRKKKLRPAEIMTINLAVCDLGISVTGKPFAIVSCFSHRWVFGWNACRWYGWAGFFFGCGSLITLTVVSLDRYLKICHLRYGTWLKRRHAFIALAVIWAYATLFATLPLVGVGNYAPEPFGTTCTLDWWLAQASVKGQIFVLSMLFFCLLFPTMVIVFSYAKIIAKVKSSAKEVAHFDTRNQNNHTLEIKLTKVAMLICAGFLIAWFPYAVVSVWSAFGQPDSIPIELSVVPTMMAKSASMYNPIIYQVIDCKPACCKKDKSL
Put plainly: reconstitution, purification, HPLC of retinal oximes. The conditions noted are these: covalent; 40 uM 11-cis retinal added to collected cell membranes, 4 °C, 24 h, dark; pH 6.5; isomer composition, no affinity.

Test [2] concerns the target T2, Xenopus tropicalis Opn5m (Xenopus tropicalis, UniProt A0A8J0QRX8).
T2 construct: gene opn5; 21 residues truncated from the C-terminus; expressed in HEK293S cells; purified in DDM on Rho1D4-agarose
T2 sequence (A0A8J0QRX8 1-322): T1 sequence (A0A8J0QRX8 1-322 W163F) with F163W
The description is as above. Particulars: covalent; 40 uM 11-cis retinal added to collected cell membranes, 4 °C, 24 h, dark; pH 6.5; isomer composition, no affinity.

Test [3] concerns the target T3, Xenopus tropicalis Opn5m (Xenopus tropicalis, UniProt A0A8J0QRX8, L208F).
T3 construct: gene opn5; 21 residues truncated from the C-terminus; expressed in HEK293S cells; purified in DDM on Rho1D4-agarose
T3 sequence (A0A8J0QRX8 1-322 L208F): T1 sequence (A0A8J0QRX8 1-322 W163F) with F163W, L208F
Described as above. Particulars: covalent; 40 uM 11-cis retinal added to collected cell membranes, 4 °C, 24 h, dark; pH 6.5; isomer composition, no affinity.

The target of test [4] is T2, Xenopus tropicalis Opn5m. Put plainly: absorption spectrum of purified reconstituted pigment, difference spectrum. Particulars: covalent; all-trans retinal added, dark versus yellow light (>500 nm), 0 °C, pH 6.5; spectral value, no affinity.
For test [5], the target named is T4, Xenopus tropicalis Opn5m (Xenopus tropicalis, UniProt A0A8J0QRX8, T184N).
T4 construct: gene opn5; 21 residues truncated from the C-terminus; expressed in HEK293S cells; purified in DDM on Rho1D4-agarose
T4 sequence (A0A8J0QRX8 1-322 T184N): T1 sequence (A0A8J0QRX8 1-322 W163F) with F163W, T184N
The description is as above. Particulars: covalent; all-trans retinal added, dark versus yellow light (>500 nm), 0 °C, pH 6.5; spectral value, no affinity.

The target in test [6] is T5, Xenopus tropicalis Opn5m (Xenopus tropicalis, UniProt A0A8J0QRX8, T184S).
T5 construct: gene opn5; 21 residues truncated from the C-terminus; expressed in HEK293S cells; purified in DDM on Rho1D4-agarose
T5 sequence (A0A8J0QRX8 1-322 T184S): T1 sequence (A0A8J0QRX8 1-322 W163F) with F163W, T184S
Described as above. The conditions noted are these: covalent; all-trans retinal added, dark versus yellow light (>500 nm), 0 °C, pH 6.5; spectral value, no affinity.

The target in test [7] is T3, Xenopus tropicalis Opn5m. Described as above. The conditions noted are these: covalent; 40 uM all-trans retinal added to collected cell membranes, dark versus yellow light (>500 nm), 0 °C, pH 6.5; spectral value, no affinity.
Test [8] has as its target T6, Xenopus tropicalis Opn5m (Xenopus tropicalis, UniProt A0A8J0QRX8, T184G).
T6 construct: gene opn5; 21 residues truncated from the C-terminus; expressed in HEK293S cells; purified in DDM on Rho1D4-agarose
T6 sequence (A0A8J0QRX8 1-322 T184G): T1 sequence (A0A8J0QRX8 1-322 W163F) with F163W, T184G
The description is as above. Particulars: covalent; all-trans retinal added, dark versus yellow light (>500 nm), 0 °C, pH 6.5; spectral value, no affinity.

For test [9], the target named is T7, Xenopus tropicalis Opn5m (Xenopus tropicalis, UniProt A0A8J0QRX8, T184C).
T7 construct: gene opn5; 21 residues truncated from the C-terminus; expressed in HEK293S cells; purified in DDM on Rho1D4-agarose
T7 sequence (A0A8J0QRX8 1-322 T184C): T1 sequence (A0A8J0QRX8 1-322 W163F) with F163W, T184C
Described as above. Particulars: covalent; all-trans retinal added, dark versus yellow light (>500 nm), 0 °C, pH 6.5; spectral value, no affinity.

In test [10] the target is T8, Xenopus tropicalis Opn5m (Xenopus tropicalis, UniProt A0A8J0QRX8, T184Q).
T8 construct: gene opn5; 21 residues truncated from the C-terminus; expressed in HEK293S cells; purified in DDM on Rho1D4-agarose
T8 sequence (A0A8J0QRX8 1-322 T184Q): T1 sequence (A0A8J0QRX8 1-322 W163F) with F163W, T184Q
Described as above. The conditions noted are these: covalent; all-trans retinal added, dark versus yellow light (>500 nm), 0 °C, pH 6.5; spectral value, no affinity.

Test [11] deals with T9, Xenopus tropicalis Opn5m (Xenopus tropicalis, UniProt A0A8J0QRX8, T184A).
T9 construct: gene opn5; 21 residues truncated from the C-terminus; expressed in HEK293S cells; purified in DDM on Rho1D4-agarose
T9 sequence (A0A8J0QRX8 1-322 T184A): T1 sequence (A0A8J0QRX8 1-322 W163F) with F163W, T184A
The description is as above. Particulars: covalent; all-trans retinal added, dark versus yellow light (>500 nm), 0 °C, pH 6.5; spectral value, no affinity.

Test [12] deals with T10, Xenopus tropicalis Opn5m (Xenopus tropicalis, UniProt A0A8J0QRX8, T184M).
T10 construct: gene opn5; 21 residues truncated from the C-terminus; expressed in HEK293S cells; purified in DDM on Rho1D4-agarose
T10 sequence (A0A8J0QRX8 1-322 T184M): T1 sequence (A0A8J0QRX8 1-322 W163F) with F163W, T184M
Described as above. Particulars: covalent; all-trans retinal added, dark versus yellow light (>500 nm), 0 °C, pH 6.5; spectral value, no affinity.

Take `CC1=C(/C=C/C(C)=C/C=C\C(C)=C\C=O)C(C)(C)CCC1` [11-cis retinal]: the “% of bound retinal as 11-cis isomer” value in test [1] was 84%; in test [2], 91%; in test [3], 88%.

Take `CC1=C(/C=C/C(C)=C/C=C/C(C)=C/C=O)C(C)(C)CCC1` [all-trans retinal]: the λmax in [4] is recorded as 474 nm; in [5], 460 nm; in test [6], 478 nm; in test [7], 475 nm; in test [8], 477 nm; in [9], 470 nm. The λmax in test [10] is listed as 483 nm; in [11], 481 nm; in [12] it was 467 nm.
